Like-named read-outs stand apart in the source and are kept apart here.
How the values were obtained:
Format in all cases: in vivo, Female Sprague Dawley rats
[1] = Safety evaluation: physical appearance and blood chemistry after single i.v. or p.o. dose; conditions: for ALP / ALT / AST / BUN / Creatinine: post-dose (24 h), mean ± SD n=6; for Physical appearance: post-dose; for Tolerability: single i.v. 3 mg/kg or p.o. 30 mg/kg
Description: (§1) This study is composed of two sections; the first section involves an investigation of the interconversion pharmacokinetics of the pure compounds, and the second focuses on tissue distribution. All rats were transferred to metabolic cages and fasted overnight for at least 10 h. The animals were then randomly divided into four groups (6 rats/group) to receive a single intravenous (i.v.) administration of either 6G, 6S, zingerone, or vehicle via the lateral tail vein at a dosage of 3 mg/kg. After a 7-week washout period, the rats received 30 mg/kg of the same test compounds through a single oral (p.o.) administration. Following each administration, blood samples (300 µL) were collected in heparinized tubes from the lateral tail vein (while rats were under anesthesia with isoflurane) at specified time points: 0.083, 0.25, 0.5, 1, 1.5, 2, 3, 4, 6, 8, and 24 h after administration. An additional 1 mL of blood sample was collected from each rat at pre-dose (0 h) and post-dose (24 h) for clinical laboratory testing and safety evaluation. All heparinized blood samples were initially centrifuged at 5,000 × g, 4 °C, for 10 min. Subsequently, the plasma was carefully transferred to a cryotube as an aliquot sample and then stored at −40 °C until analysis. Urine and feces were collected during the intervals of 0–24 h and 24–48 h post-dosing, and their weights and volumes were documented. All collected urine and feces samples were stored at −40 °C until analysis.
Plasma samples were collected at baseline (T0) and T24 h for the determination of blood chemistry, including levels of blood urea nitrogen (BUN), creatinine, aspartate transaminase (AST), alanine transaminase (ALT), and alkaline phosphatase (ALP). The analyses were conducted by the Exclusive Veterinary Professional Laboratory Center (Bangkok, Thailand). The creatinine level was determined using an enzymatic oxidase assay, while AST and ALT levels were determined using the procedure of the International Federation of Clinical Chemistry (IFCC) without pyridoxal phosphate activation.

[2] = Pharmacokinetics and oral bioavailability after single oral administration (30 mg/kg), plasma LC-MS/MS; conditions: for bioavailability / AUC(0-inf) / AUC(0-t) / Tmax / Cmax: female, Sprague-Dawley, rat, po; for bioavailability / AUC(0-inf) / AUC(0-t) / Tmax: plasma, 30 mg/kg; for AUC(0-t): read-out: AUC(0-t); for Tmax: median [IQR]; for presence of parent compound in plasma: following oral administration
Description: as §1
Plasma samples were processed through protein precipitation. In brief, 50 µL of plasma was mixed with 200 µL of methanol containing 50 ng/mL of IS (dihydrocapsaicin). The mixtures were vortexed and centrifuged at 14,000 × g at 4 °C for 10 min. The supernatant was filtered through a […] PVDF membrane (Chrome Tech, MN, USA) before analysis.
(§2) Investigation of glucuronide conjugations followed a previously published method with some modification ([Wang et al., 2017]; [Songvut et al., 2023]). A 50 μL aliquot of plasma, urine, or feces sample was incubated at 37 °C for a minimum of 30 min with 50 μL of β-glucuronidase (3,000 U/mL) in a sodium phosphate buffer (pH 6.8). For sample extraction, 150 μL of methanol containing 50 μg/L of IS was pipetted into the pre-incubated samples. Subsequently, the mixtures were vortexed for 10 min and then centrifuged at 14,000 × g at 4 °C for 10 min. The supernatants were filtered through a […] PVDF membrane (Chrome Tech, MN, United States) and then analyzed using the validated LC-MS/MS method.
Quantitative analysis was conducted using liquid chromatography-tandem mass spectrometry (LC-MS/MS) with a Nexera X2 LCMS-8060NX instrument (Shimadzu, Japan). The instrument included a CBM-40lite system controller, CTO-40C column oven, SIL-40C XR autosampler, LC-40D XR solvent pump unit, FCV-DGU-403 degasser, and 20AH2 switching valve. The LC-MS/MS system was operated with a binary pump and equipped with a triple quadrupole mass spectrometer.
Pharmacokinetic parameters were assessed using PK Solutions software (version 2.0) with non-compartmental analysis. The AUC was calculated using the Linear-Log Trapezoidal Method. The maximum plasma concentration (Cmax) and time to reach maximum plasma concentration (Tmax) were taken directly from the graph.
(§3) Plasma concentration-time profiles were plotted using GraphPad Prism 9.3.0 (GraphPad Software, USA). The absolute oral bioavailability was calculated as follows: F = (AUC p.o./dose p.o.)/(AUC i.v./dose i.v.). The percentage recovery of each administered compound was calculated as the total amount of the drug found in urine or feces divided by the administered dose. The tissue-to-plasma concentration ratios (K p) were calculated by dividing the concentration in the tissue by the corresponding plasma concentration at the respective sampling time point.

[3] = Interconversion clearance between 6G and 6S after intravenous administration; conditions: female, Sprague-Dawley, rat, plasma, iv; single i.v. 3 mg/kg; read-out: CL20 (irreversible elimination clearance of 6S) (converted)
Description: The interconversion between 6G and 6S was determined using previously published methods ([Ebling and Jusko, 1986]; [Prueksaritanont et al., 2005]). The clearance of 6G biotransformed into 6S was calculated as CL12, while the reverse clearance (6S → 6G) was calculated as CL21. The irreversible elimination clearances of 6G and 6S were calculated as CL10 and CL20, respectively. The following equations were used in accordance with the notation provided in Supplementary Table S3. CL12=Dose^shogaol […] CL21=Dose^gingerol […] CL10=Dose^gingerol x AUCshogaolshogaol- Dose^shogaol […] CL20=Dose^shogaol […]- Dose^gingerol […]

[4] = Percent recovery in urine and feces after intravenous or oral administration; conditions: for parent compound recovered in urine: during 24–48 h; for dose excreted: female, Sprague Dawley, rat, % of administered dose; for unchanged form in fecal excretion: within 48 h after intravenous or oral administration
Description: as §1
Urine samples were centrifuged, and 50 µL of urine was extracted with 200 µL of 100% methanol. The mixture was vortexed for 10 min and subsequently centrifuged at 14,000 × g at 4 °C for 10 min. Feces and organs were weighed and homogenized with methanol (50:50% w/v). The supernatants of the extracted urine, feces, and organs were also filtered through a […] PVDF membrane (Chrome Tech, MN, USA) before analysis.
as §2, §3

[5] = p.o. 30 mg/kg vs i.v. 3 mg/kg of the pure compound, mean ± SD n=6, read-out: %Oral bioavailability
[6] = p.o. 30 mg/kg vs i.v. 3 mg/kg of the pure compound, range among rats, read-out: %Oral bioavailability (range)
[7] = p.o. 30 mg/kg vs i.v. 3 mg/kg, pure compounds, read-out: absolute oral bioavailability (upper bound)
[8] = plasma analyte after [6]-gingerol p.o. 30 mg/kg, mean ± SD n=6
[9] = plasma analyte after [6]-gingerol p.o. 30 mg/kg
[10] = plasma analyte after [6]-shogaol p.o. 30 mg/kg, mean ± SD n=6
[11] = feces, iv, 3 mg/kg, intravenous administration 3 mg/kg of parent compound, read-out: % Recovery excretion, feces T 0–24 h
[12] = feces, po, 30 mg/kg, oral administration 30 mg/kg of parent compound, read-out: % Recovery excretion, feces T 0–24 h
[13] = feces, po, 30 mg/kg, oral administration 30 mg/kg of parent compound, read-out: % Recovery excretion, feces T 24–48 h
[14] = urine, iv, 3 mg/kg, intravenous administration 3 mg/kg of parent compound, read-out: % Recovery excretion, urine T 0–24 h
[15] = urine, iv, 3 mg/kg, intravenous administration 3 mg/kg of parent compound, read-out: % Recovery excretion, urine T 24–48 h
[16] = urine, po, 30 mg/kg, oral administration 30 mg/kg of parent compound, read-out: % Recovery excretion, urine T 0–24 h
[17] = urine, po, 30 mg/kg, oral administration 30 mg/kg of parent compound, read-out: % Recovery excretion, urine T 24–48 h
[18] = plasma analyte after zingerone p.o. 30 mg/kg, mean ± SD n=6

| SMILES | ALP ([1]; i.v. 3 mg/kg) [U/L] | ALT ([1]; i.v. 3 mg/kg) [U/L] | AST ([1]; i.v. 3 mg/kg) [U/L] | BUN ([1]; i.v. 3 mg/kg) [mg/dL] | Creatinine ([1]; i.v. 3 mg/kg) [mg/dL] | ALP ([1]; p.o. 30 mg/kg) [U/L] | ALT ([1]; p.o. 30 mg/kg) [U/L] | AST ([1]; p.o. 30 mg/kg) [U/L] | BUN ([1]; p.o. 30 mg/kg) [mg/dL] | Creatinine ([1]; p.o. 30 mg/kg) [mg/dL] | Physical appearance ([1]; i.v. 3 mg/kg) | Physical appearance ([1]; p.o. 30 mg/kg) | Tolerability [1] | bioavailability [2, 5] [%] | bioavailability [2, 6] [%] | bioavailability [2, 7] [%] | AUC(0-inf) [2, 8] [ng·h/mL] | AUC(0-t) [2, 8] [ng·h/mL] | Tmax [2, 9] [min] | presence of parent compound in plasma [2] | other results |
| --- | --- | --- | --- | --- | --- | --- | --- | --- | --- | --- | --- | --- | --- | --- | --- | --- | --- | --- | --- | --- | --- |
| CCCCC/C=C/C(=O)CCc1ccc(O)c(OC)c1 [[6]-shogaol] | 49.50 ± 14.46 | 18.83 ± 3.92 | 59.50 ± 5.61 | 14.17 ± 1.72 | 0.73 ± 0.02 | 39.17 ± 11.20 | 22.50 ± 5.89 | 63.83 ± 11.77 | 14.00 ± 2.00 | 0.71 ± 0.02 | Normal | Normal | exhibited tolerance | 0.15 ± 0.1 | 0.1 to 0.31 | < 2 | 10.3 ± 4.14 | 10.2 ± 4.01 | 15 | up to 4 h | AUC(0-inf) [2, 10]: 66.9 ± 30.5 ng·h/mL; AUC(0-t) [2, 10]: 66.9 ± 30.5 ng·h/mL; Tmax ([2]; plasma analyte after [6]-shogaol p.o. 30 mg/kg): 45 min; Cmax [2, 10]: 51.8 ± 20.9 ng/mL; clearance [3]: 11.3 mL/min/kg; parent compound recovered in urine [4]: less than 1%; dose excreted [4, 11]: < 0.001%; dose excreted [4, 12]: 0.001 ± 0.001%; dose excreted [4, 13]: 0.002 ± 0.002%; dose excreted [4, 14]: 0.003 ± 0.002%; dose excreted [4, 15]: < 0.001%; dose excreted [4, 16]: 0.001 ± 0.001%; dose excreted [4, 17]: < 0.001%; unchanged form in fecal excretion [4]: < 0.1% |
| COc1cc(CCC(C)=O)ccc1O [zingerone, 4-(4-hydroxy-3-methoxyphenyl)-2-butanone] | 48.50 ± 14.00 | 28.50 ± 5.82 | 64.17 ± 11.05 | 14.17 ± 1.33 | 0.70 ± 0.03 | 35.83 ± 8.38 | 19.33 ± 2.50 | 53.83 ± 6.88 | 9.83 ± 1.47 | 0.75 ± 0.02 | Normal | Normal | exhibited tolerance | 0.75 ± 0.52 | 0.32 to 1.6 | < 2 | 28 ± 7.4 | 28 ± 7.4 | 15 | up to 4 h | plasma detection of zingerone after 6S administration ([2]; after 6S administration (route not given)): not detected; AUC(0-inf) [2, 18]: 950 ± 373 ng·h/mL; AUC(0-t) [2, 18]: 944 ± 348 ng·h/mL; Tmax ([2]; plasma analyte after zingerone p.o. 30 mg/kg): 4.8 min; Cmax [2, 18]: 1870 ± 604 ng/mL; time to detectable plasma levels ([2]; oral administration of pure compound): ≤ 5 min; time to reach peak plasma concentration (Cmax) ([2]; parent compound after oral administration 30 mg/kg): 5 to 45 min; parent compound recovered in urine [4]: less than 1%; dose excreted [4, 11]: 0.049 ± 0.027%; dose excreted ([4]; feces, iv, 3 mg/kg, intravenous administration 3 mg/kg of parent compound, read-out: % Recovery excretion, feces T 24–48 h): 0.002 ± 0.001%; dose excreted [4, 12]: 0.004 ± 0.003%; dose excreted [4, 13]: 0.057 ± 0.017%; dose excreted [4, 14]: 0.184 ± 0.286%; dose excreted [4, 15]: < 0.001%; dose excreted [4, 16]: 0.049 ± 0.032%; dose excreted [4, 17]: < 0.001%; unchanged form in fecal excretion [4]: < 0.1% |
